Assay: Effect on oxygen consumption in fasted rats (metabolic cages)
Format: in vivo, Albinoratten
Settings: placebo-corrected; for Sauerstoffverbrauch 1. bis 3. Stunde: mean of hours 1-3 after dosing; for Sauerstoffverbrauch 1. bis 12. Stunde: mean of hours 1-12 after dosing
Experimental: Wirkung auf den Sauerstoffverbrauch
Gruppen von 6 männlichen Albinoratten im Gewicht von 160-180 g wurden nach 24 Stunden Fasten in Stoffwechselkäfige gesetzt. Die Käfige wurden mit konstant 6 Liter Raumluft/Minute, die bei einem Taupunkt von 11°C äquilibriert wurden belüftet. Von der Abluft wurde nach erneuter Aequilibrierung während Perioden von jeweils 14 Minuten Proben gesammelt und der Sauerstoff- und CO₂-Gehalt analysiert. Nach einer Anpassungszeit von 4 Stunden erhielten die Tiere entweder Placebo (5% Gummi arabicum) oder die Testsubstanz, nämlich BAP (suspendiert in 5% Gummi arabicum) per os oder intraperitoneal. Danach wurden 12 Stunden lang die Bestimmungen durchgeführt. In der nachfolgenden Tabelle ist der gemittelte Sauerstoffverbrauch nach Medikation während der ersten 3 Stunden und der gesamten Versuchsdauer (12 Stunden) als Prozentsatz des Sauerstoffverbrauchs der Anpassungsperiode (100%) angegeben, wobei entsprechende Korrekturen für Aenderungen in der Placebo-Gruppe berücksichtigt wurden, Tabelle

SMILES: OCCOc1ccc(CCN(C[C@H](O)c2cccc(Cl)c2)C[C@H](O)c2cccc(Cl)c2)cc1 [BAP, 4-[2-[Bis[(R)-β-hydroxy-3-chlorphenäthyl]amino]äthyl]phenoxyäthanol]
- Sauerstoffverbrauch 1. bis 3. Stunde (0,3 µM/kg i.p.): 134 % vom Wert der Vorperiode
- Sauerstoffverbrauch 1. bis 12. Stunde (0,3 µM/kg i.p.): 108 % vom Wert der Vorperiode
- Sauerstoffverbrauch 1. bis 3. Stunde (0,3 µM/kg p.os): 114 % vom Wert der Vorperiode
- Sauerstoffverbrauch 1. bis 12. Stunde (0,3 µM/kg p.os): 105 % vom Wert der Vorperiode
- Sauerstoffverbrauch 1. bis 3. Stunde (1 µM/kg i.p.): 172 % vom Wert der Vorperiode
- Sauerstoffverbrauch 1. bis 12. Stunde (1 µM/kg i.p.): 121 % vom Wert der Vorperiode
- Sauerstoffverbrauch 1. bis 3. Stunde (1 µM/kg p.os): 156 % vom Wert der Vorperiode
- Sauerstoffverbrauch 1. bis 12. Stunde (1 µM/kg p.os): 122 % vom Wert der Vorperiode
- Sauerstoffverbrauch 1. bis 3. Stunde (3 µM/kg i.p.): 174 % vom Wert der Vorperiode
- Sauerstoffverbrauch 1. bis 12. Stunde (3 µM/kg i.p.): 134 % vom Wert der Vorperiode
- Sauerstoffverbrauch 1. bis 3. Stunde (3 µM/kg p.os): 179 % vom Wert der Vorperiode
- Sauerstoffverbrauch 1. bis 12. Stunde (3 µM/kg p.os): 137 % vom Wert der Vorperiode
- Sauerstoffverbrauch 1. bis 3. Stunde (10 µM/kg i.p.): 186 % vom Wert der Vorperiode
- Sauerstoffverbrauch 1. bis 12. Stunde (10 µM/kg i.p.): 154 % vom Wert der Vorperiode
- Sauerstoffverbrauch 1. bis 3. Stunde (10 µM/kg p.os): 191 % vom Wert der Vorperiode
- Sauerstoffverbrauch 1. bis 12. Stunde (10 µM/kg p.os): 157 % vom Wert der Vorperiode
